For the assay, the system named is Plasmodium berghei. As to the kind of experiment: Luciferase/luciferin-expressing antifolate-resistant parasites were used to infect a culture of HepG2 cells that were pre-incubated with compounds. Infected hepatocytes emit light due to the luciferase reaction. Assay results are presented as the percent inhibition of light emission compared to control. […]. The class given is functional. Conditions: sporozoite; for IC90: read-out: LUCIFERASE INFECTION ASSAY - IC90.

Where [1] appears, read: read-out: LUCIFERASE INFECTION ASSAY - IC50.

Structures are written as SMILES. pIC50: −log10 of the molar value. Some results are limits rather than exact numbers.

In general, pIC50 refers to the negative decadic logarithm of the IC50, by convention in mol/L. By IC90 is commonly meant the concentration needed for an effect of 90%. For `CCN(CC)c1ccc(Nc2nc(-c3c(C)nc4ncccn34)cs2)cc1`, the IC90 stood at 6.56 µM. For the setting “HEPG2TOX_HILL_SLOPE 1.79, HEPG2TOX_R_SQUARED 0.957, PBLUC_HILL_SLOPE 3.27, PBLUC_R_SQUARED 0.301, read-out: LUCIFERASE INFECTION ASSAY - IC50”, the pIC50 was 5.47.

Take `Cc1cccc2c(=O)n(CC(=O)NCc3ccc(C(=O)N4CCCCC4)cc3)cnc12`: the IC90 was found to be 3.14 µM. For the same molecule, the pIC50 (HEPG2TOX_HILL_SLOPE 1.92, HEPG2TOX_R_SQUARED 0.972, PBLUC_HILL_SLOPE 11.2, PBLUC_R_SQUARED 0.559, read-out: LUCIFERASE INFECTION ASSAY - IC50) was 5.59.

In the case of `COc1cc2c(cc1OC)CN(C(=O)CCN1c3ccccc3Sc3ccccc31)CC2`, the IC90 was 8.48 µM. Further, where the note is “HEPG2TOX_HILL_SLOPE 15.5, HEPG2TOX_R_SQUARED 0.469, PBLUC_HILL_SLOPE 3.54, PBLUC_R_SQUARED 0.432, read-out: LUCIFERASE INFECTION ASSAY - IC50”, the pIC50 is 5.34.

Consider `COCC(C)NC(=O)c1cccnc1-c1nc2ccccc2s1` (configuration not stated), for which the IC90 is above 10.1 µM. In addition, the pIC50 under setting [1] is below 5.00.

Take `Cc1noc(C)c1C(=O)OCC(=O)c1cc(C)n(-c2ccccc2F)c1C`: the IC90 is above 10 µM. Also, the pIC50 (PBLUC_HILL_SLOPE 1.73, PBLUC_R_SQUARED 0.622, read-out: LUCIFERASE INFECTION ASSAY - IC50) was 5.38.

Consider `COc1ccc(CCn2c(C)nc3c(cnn3-c3ccccc3)c2=O)cc1`, for which the IC90 was 3.03 µM. For the same molecule, the negative-log IC50 (pIC50) under setting [1] was 6.31.

Turning to `CC(=O)Nc1cccc(-c2ccnc3c2CC(C(=O)NCc2ccco2)O3)c1` (configuration not stated), the IC90 was determined as 6.23 µM. In addition, the pIC50 (FFLUC_HILL_SLOPE 0.324, FFLUC_R_SQUARED 0.726, HEPG2TOX_HILL_SLOPE 3.12, HEPG2TOX_R_SQUARED 0.86, PBLUC_HILL_SLOPE 2.84, PBLUC_R_SQUARED 0.407, read-out: LUCIFERASE INFECTION ASSAY - IC50) is 5.54.

On to `CN1CCN(c2ccc(Cl)cc2NC(=O)c2cccc(Oc3ccccc3)c2)CC1`, for which the IC90 was 2.23 µM. Besides, the pIC50 (PBLUC_HILL_SLOPE 1.31, PBLUC_R_SQUARED 0.699, read-out: LUCIFERASE INFECTION ASSAY - IC50) is 6.38.

For `CCOC(=O)c1cc(-c2csc(Nc3c(C)cc(C)cc3C)n2)on1`, the IC90 was above 9.23 µM. For the same molecule, the pIC50 (PBLUC_HILL_SLOPE 14.6, PBLUC_R_SQUARED 0.157, read-out: LUCIFERASE INFECTION ASSAY - IC50) is 5.04.

As to `Cc1sc2ncn(CC(=O)NC(c3ccc(F)cc3)c3cccs3)c(=O)c2c1-c1ccccc1` (configuration not stated), the IC90 was found to be 9.83 µM. Also, the pIC50 (FFLUC_HILL_SLOPE 15.7, FFLUC_R_SQUARED 0.526, PBLUC_HILL_SLOPE 17, PBLUC_R_SQUARED 0.112, read-out: LUCIFERASE INFECTION ASSAY - IC50) was 5.06.

For the molecule `Clc1ccccc1/C=N/Nc1nc(-c2cc(-c3ccccc3)no2)cs1`, the IC90 was above 8.66 µM. Further, the pIC50 (PBLUC_HILL_SLOPE 1.1, PBLUC_R_SQUARED 0.687, read-out: LUCIFERASE INFECTION ASSAY - IC50) was 5.19.

As for `Cc1ccsc1C(O)c1nnc(N2CCCCC2)s1` (configuration not stated), the IC90 was determined as 6.49 µM. For the setting “PBLUC_HILL_SLOPE 1.05, PBLUC_R_SQUARED 0.691, read-out: LUCIFERASE INFECTION ASSAY - IC50”, the pIC50 was 6.10.

Consider `O=C1/C(=N\O)c2ccccc2N1Cc1cc(C(F)(F)F)cc(C(F)(F)F)c1`, for which the IC90 was determined as 2.62 µM. In addition, under “HEPG2TOX_HILL_SLOPE 1.63, HEPG2TOX_R_SQUARED 0.96, PBLUC_HILL_SLOPE 1.81, PBLUC_R_SQUARED 0.672, read-out: LUCIFERASE INFECTION ASSAY - IC50”, the pIC50 was 6.11.

For the molecule `N=C(Cc1cccs1)NOC(=O)Nc1cc(Cl)cc(Cl)c1`, the IC90 is above 9.59 µM. For the same molecule, under “PBLUC_HILL_SLOPE 2.97, PBLUC_R_SQUARED 0.445, read-out: LUCIFERASE INFECTION ASSAY - IC50”, the pIC50 was 5.17.

With `CCC(C)(C)c1ccc(Oc2ccc(NC(=O)CN3CCN(c4ccccc4O)CC3)cc2)cc1`, the IC90 is above 10 µM. Also, the negative-log IC50 (pIC50) (HEPG2TOX_HILL_SLOPE 8.11, HEPG2TOX_R_SQUARED 0.399, read-out: LUCIFERASE INFECTION ASSAY - IC50) is below 5.00.

For the molecule `Cc1cc(C)c(S(=O)(=O)N2CCN(C(=O)CCCOc3ccc(Cl)c(C)c3)CC2)c(C)c1`, the IC90 was above 10 µM. For the same molecule, under setting [1], the pIC50 is below 5.00.

With `N#Cc1ccccc1S(=O)(=O)Nc1cccc(-n2cccn2)c1`, the IC90 was above 10 µM. Moreover, the pIC50 under setting [1] was below 5.00.

Turning to `CCn1c2ccccc2c2cc(NC(=O)C(C)OC(=O)C3C(C(=O)OC)=C(C)NC(C)=C3C(=O)OC)ccc21` (configuration not stated), the IC90 is above 10 µM. Besides, the pIC50 (FFLUC_HILL_SLOPE 9.58, FFLUC_R_SQUARED 0.157, read-out: LUCIFERASE INFECTION ASSAY - IC50) is below 5.00.

With `Cc1cccc(Nc2ncc(C(=O)c3cccc(-c4ccncc4)c3)[nH]2)c1`, the 90% effect concentration (IC90) stood at 2.02 µM. The pIC50 (HEPG2TOX_HILL_SLOPE 1.98, HEPG2TOX_R_SQUARED 0.759, PBLUC_HILL_SLOPE 4.11, PBLUC_R_SQUARED 0.608, read-out: LUCIFERASE INFECTION ASSAY - IC50) is 5.93.

In the case of `CCOC(=O)c1c(C)[nH]c(C(=O)C(C)OC(=O)c2n[nH]c(=O)c3ccccc23)c1C` (configuration not stated), the IC90 was above 10 µM. Moreover, the pIC50 (HEPG2TOX_HILL_SLOPE 1.25, HEPG2TOX_R_SQUARED 0.561, read-out: LUCIFERASE INFECTION ASSAY - IC50) was below 5.00.

On to `COC1CC(O[C@H]2CC[C@]3(C)C4CC[C@]5(C)[C@@H](C6=CC(=O)OC6)CC[C@]5(O)[C@@H]4CC[C@]3(O)C2)OC(C)C1O` (some centres not stated), for which the IC90 was found to be 0.177 µM. Further, the pIC50 (HEPG2TOX_HILL_SLOPE 1.6, HEPG2TOX_R_SQUARED 0.898, PBLUC_HILL_SLOPE 2.36, PBLUC_R_SQUARED 0.616, read-out: LUCIFERASE INFECTION ASSAY - IC50) is 7.16.

`CN(C)CCCn1c(SCC(=O)N2c3ccccc3Sc3ccccc32)nc2ccccc2c1=O`: the IC90 is 9.41 µM. Moreover, the pIC50 (PBLUC_HILL_SLOPE 9.03, PBLUC_R_SQUARED 0.19, read-out: LUCIFERASE INFECTION ASSAY - IC50) is 5.13.

Take `Clc1ccc(C2=NN=C/C2=N\Nc2ccccc2)cc1`: the 90% effect concentration (IC90) was above 11.7 µM. The pIC50 (FFLUC_HILL_SLOPE 24, FFLUC_R_SQUARED 0.142, HEPG2TOX_HILL_SLOPE 12.3, HEPG2TOX_R_SQUARED 0.867, PBLUC_HILL_SLOPE 2.49, PBLUC_R_SQUARED 0.792, read-out: LUCIFERASE INFECTION ASSAY - IC50) is 5.26.

Turning to `O=S(=O)(Nc1ccc(Cl)cc1)c1ccc2nc(-c3ccccn3)[nH]c2c1`, the IC90 came to 8.29 µM. For the same molecule, the pIC50 (HEPG2TOX_HILL_SLOPE 9.44, HEPG2TOX_R_SQUARED 0.935, PBLUC_HILL_SLOPE 6.04, PBLUC_R_SQUARED 0.808, read-out: LUCIFERASE INFECTION ASSAY - IC50) was 5.24.

On to `COc1ccc(NCc2csc(-c3ccccc3)n2)cc1Cl`, for which the 90% effect concentration (IC90) is above 10 µM. Moreover, under setting [1], the pIC50 is below 5.00.

Take `Cc1ccc(-n2c(C)cc(C(=O)COC(=O)c3cccnc3O)c2C)cc1C`: the IC90 is 6.62 µM. Besides, where the note is “PBLUC_HILL_SLOPE 1.34, PBLUC_R_SQUARED 0.562, read-out: LUCIFERASE INFECTION ASSAY - IC50”, the pIC50 was 5.89.
